Patent US20260108546A1 (ELI LILLY AND COMPANY, priority 2024, published 2026)

Biological target: T1, hGIP-R (Homo sapiens, UniProt P48546)
T1 construct: expressed in transfected cells; host or cells: HEK-293 clonal cell lines
T1 sequence (P48546 22-466): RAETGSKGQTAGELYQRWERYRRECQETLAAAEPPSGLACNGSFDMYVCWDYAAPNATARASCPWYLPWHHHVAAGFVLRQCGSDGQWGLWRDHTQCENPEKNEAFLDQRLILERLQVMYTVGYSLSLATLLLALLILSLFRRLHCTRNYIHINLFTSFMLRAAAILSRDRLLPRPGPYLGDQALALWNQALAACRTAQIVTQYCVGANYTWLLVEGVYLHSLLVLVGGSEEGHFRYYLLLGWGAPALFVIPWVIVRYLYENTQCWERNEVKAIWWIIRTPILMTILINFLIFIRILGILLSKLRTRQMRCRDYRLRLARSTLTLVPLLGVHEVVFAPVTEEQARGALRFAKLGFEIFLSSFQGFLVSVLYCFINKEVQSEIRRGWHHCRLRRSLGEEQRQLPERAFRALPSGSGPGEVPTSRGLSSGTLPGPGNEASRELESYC
Test: Functional hGIP-R Assay (cAMP formation, HTRF)
Type: cell-based
Conditions: for Emax: cAMP efficacy, percent of maximal response to GIP(1-42)OH, 37° C., 0.1% bovine casein, arithmetic mean ± SEM; for EC50: cAMP potency, HEK-293 cells expressing hGIP-R, incubated at 37° C. in the presence of 0.1% bovine casein, geometric mean, read-out: Human GIP-R EC50, nM (SEM, n)
Summary of the method: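 Relative EC50 and Emax came from four-parameter logistic fits of cAMP as a percent of the human GIP (1-42) OH maximal response. The cAMP was measured by competitive HTRF after 30 min, 37 °C compound exposure of hGIP-R HEK-293 clones in IBMX (250 μM)-containing medium.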

| Emax [%] | EC50 [nM] | Compound |
| --- | --- | --- |
| 119 | 93.5 | CN(C(=O)[C@H]1C[C@@H]1c1ccc(-c2cnc3nn(C)cc3c2)cc1)[C@H](Cc1cnn(C)c1)C(=O)NC(C)(C)Cn1nc(C(F)(F)F)cc1-c1ccc[nH]c1=O [Example 32, (1S,2S)-N-Methyl-N-((R)-1-((2-methyl-1-(5-(2-oxo-1,2-dihydropyridin-3-yl)-3-(trifluoromethyl)-1H-pyrazol-1-yl)propan-2-yl)amino)-3-(1-methyl-1H-pyrazol-4-yl)-1-oxopropan-2-yl)-2-(4-(2-methyl-2H-pyrazolo[3,4-b]pyridin-5-yl)phenyl) cyclopropane-1-carboxamide] |
| 108 | 133 | CN(C(=O)[C@H]1C[C@@H]1c1ccc(-c2cnc3nn(C)cc3c2)cc1)[C@H](Cc1cnn(C)c1)C(=O)NC(C)(C)Cn1nc(C(F)(F)F)cc1-c1cccc(=O)[nH]1 [Example 33, (1S,2S)-N-Methyl-N-((R)-1-((2-methyl-1-(5-(6-oxo-1,6-dihydropyridin-2-yl)-3-(trifluoromethyl)-1H-pyrazol-1-yl)propan-2-yl)amino)-3-(1-methyl-1H-pyrazol-4-yl)-1-oxopropan-2-yl)-2-(4-(2-methyl-2H-pyrazolo[3,4-b]pyridin-5-yl)phenyl) cyclopropane-1-carboxamide] |
| 113 ± 12.3 | 183 | CN(C(=O)[C@H]1C[C@@H]1c1ccc(-c2cnc3nccn3c2)cc1)[C@H](Cc1cnn(C)c1)C(=O)NC(C)(C)Cn1nc(C(F)(F)F)cc1-c1ccc(=O)n(C)c1 [Example 34, (1S,2S)-2-(4-(imidazo[1,2-a]pyrimidin-6-yl)phenyl)-N-methyl-N-((R)-1-((2-methyl-1-(5-(1-methyl-6-oxo-1,6-dihydropyridin-3-yl)-3-(trifluoromethyl)-1H-pyrazol-1-yl)propan-2-yl)amino)-3-(1-methyl-1H-pyrazol-4-yl)-1-oxopropan-2-yl)cyclopropane-1-carboxamide] |
| 75 ± 4.1 | 135 | CN(C(=O)[C@H]1C[C@@H]1c1ccc(NC(=O)C2CCC(F)(F)CC2)cc1)[C@H](Cc1cnn(C)c1)C(=O)NC(C)(C)Cn1nc(C(F)(F)F)cc1-c1ccc(=O)n(C)c1 [Example 35, 4,4-Difluoro-N-(4-((1S,2S)-2-(methyl((R)-1-((2-methyl-1-(5-(1-methyl-6-oxo-1,6-dihydropyridin-3-yl)-3-(trifluoromethyl)-1H-pyrazol-1-yl)propan-2-yl)amino)-3-(1-methyl-1H-pyrazol-4-yl)-1-oxopropan-2-yl)carbamoyl)cyclopropyl)phenyl)cyclohexane-1-carboxamide] |
| 94 ± 11.1 | 104 | CN(C(=O)[C@H]1C[C@@H]1c1ccc(NC(=O)Nc2ccc(F)cc2)cc1)[C@H](Cc1cnn(C)c1)C(=O)NC(C)(C)Cc1ccc(F)cc1 [Example 36, (1S,2S)-N-((R)-1-((1-(4-Fluorophenyl)-2-methylpropan-2-yl)amino)-3-(1-methyl-1H-pyrazol-4-yl)-1-oxopropan-2-yl)-2-(4-(3-(4-fluorophenyl)ureido)phenyl)-N-methylcyclopropane-1-carboxamide] |
| 77.4 ± 5.92 | 10.8 | Cn1cc2cc(-c3ccc([C@H]4C[C@@H]4C(=O)N[C@H](Cc4cnc5ncccn45)C(=O)NC(C)(C)Cn4nc(C(F)(F)F)cc4C4CC4)cc3)cnc2n1 [Example 37, (1S,2S)-N-((R)-1-((1-(5-Cyclopropyl-3-(trifluoromethyl)-1H-pyrazol-1-yl)-2-methylpropan-2-yl)amino)-3-(imidazo[1,2-a]pyrimidin-3-yl)-1-oxopropan-2-yl)-2-(4-(2-methyl-2H-pyrazolo[3,4-b]pyridin-5-yl)phenyl) cyclopropane-1-carboxamide] |
| 92.1 | 7.93 | Cn1cc(-c2cc(C(F)(F)F)nn2CC(C)(C)NC(=O)[C@@H](Cc2cnc3ncccn23)NC(=O)[C@H]2C[C@@H]2c2ccc(-c3cnc4nccn4c3)cc2)cn1 [Example 38] |
| 77.8 ± 2.57 | 63.1 | CC(C)(Cn1ccc(C(F)(F)F)n1)NC(=O)[C@@H](Cc1cnc2ncccn12)NC(=O)[C@H]1C[C@@H]1c1ccc(-c2cnc3nccn3c2)cc1 [Example 39, (1S,2S)-N-((R)-3-(Imidazo[1,2-a]pyrimidin-3-yl)-1-((2-methyl-1-(3-(trifluoromethyl)-1H-pyrazol-1-yl)propan-2-yl)amino)-1-oxopropan-2-yl)-2-(4-(imidazo[1,2-a]pyrimidin-6-yl)phenyl) cyclopropane-1-carboxamide] |
| 60.7 ± 0.306 | 3.55 | CC(C)(Cn1nc(C(F)(F)F)cc1C1CC1)NC(=O)[C@@H](Cc1cnc2ncccn12)NC(=O)[C@H]1C[C@@H]1c1ccc(NC(=O)C2CC(F)(F)C2)cc1 [Example 40, N-(4-((1S,2S)-2-(((R)-1-((1-(5-cyclopropyl-3-(trifluoromethyl)-1H-pyrazol-1-yl)-2-methylpropan-2-yl)amino)-3-(imidazo[1,2-a]pyrimidin-3-yl)-1-oxopropan-2-yl)carbamoyl)cyclopropyl)phenyl)-3,3-difluorocyclobutane-1-carboxamide] |
| 111 ± 4.76 | 20.2 | Cn1cc(C[C@@H](NC(=O)[C@H]2C[C@@H]2c2ccc(-c3cnc4nn(C)cc4c3)cc2)C(=O)NC(C)(C)Cn2nc(C(F)(F)F)cc2-c2cn[nH]c2)cn1 [Example 41, (1S,2S)-N—((R)-1-((2-Methyl-1-(5-(trifluoromethyl)-1′H,2H-[3,4′-bipyrazol]-2-yl)propan-2-yl)amino)-3-(1-methyl-1H-pyrazol-4-yl)-1-oxopropan-2-yl)-2-(4-(2-methyl-2H-pyrazolo[3,4-b]pyridin-5-yl)phenyl)cyclopropane-1-carboxamide] |
| 114 ± 10.2 | 52.7 | Cn1cc(C[C@@H](NC(=O)[C@H]2C[C@@H]2c2ccc(-c3cnc4nn(C)cc4c3)cc2)C(=O)NC(C)(C)Cn2nc(C(F)(F)F)cc2-c2cc[nH]n2)cn1 [Example 42] |
| 116 ± 4.26 | 61.1 | Cn1cc2cc(-c3ccc([C@H]4C[C@@H]4C(=O)N[C@H](Cc4cnn(C(F)F)c4)C(=O)NC(C)(C)Cn4nc(C(F)(F)F)cc4-c4cn[nH]n4)cc3)cnc2n1 [Example 43, (1S,2S)-N-((R)-1-((1-(5-(2H-1,2,3-Triazol-4-yl)-3-(trifluoromethyl)-1H-pyrazol-1-yl)-2-methylpropan-2-yl)amino)-3-(1-(difluoromethyl)-1H-pyrazol-4-yl)-1-oxopropan-2-yl)-2-(4-(2-methyl-2H-pyrazolo[3,4-b]pyridin-5-yl)phenyl)cyclopropane-1-carboxamide] |
| 111 ± 17.5 | 122 | Cn1cc(C[C@@H](NC(=O)[C@H]2C[C@@H]2c2ccc(-c3cnc4nn(C)cc4c3)cc2)C(=O)NC(C)(C)Cn2nc(C(F)F)cc2-c2cn[nH]n2)cn1 [Example 44, (1S,2S)-N-((R)-1-((1-(3-(Difluoromethyl)-5-(2H-1,2,3-triazol-4-yl)-1H-pyrazol-1-yl)-2-methylpropan-2-yl)amino)-3-(1-methyl-1H-pyrazol-4-yl)-1-oxopropan-2-yl)-2-(4-(2-methyl-2H-pyrazolo[3,4-b]pyridin-5-yl)phenyl)cyclopropane-1-carboxamide] |
| 79.8 ± 9.84 | 10.7 | CC(C)(Cn1cc(C(F)(F)F)cn1)NC(=O)[C@@H](Cc1cnc2ncccn12)NC(=O)[C@H]1C[C@@H]1c1ccc(NC(=O)C2CCC(F)(F)CC2)cc1 [Example 45, 4,4-Difluoro-N-(4-((1S,2S)-2-(((R)-3-(imidazo[1,2-a]pyrimidin-3-yl)-1-((2-methyl-1-(4-(trifluoromethyl)-1H-pyrazol-1-yl)propan-2-yl)amino)-1-oxopropan-2-yl)carbamoyl)cyclopropyl)phenyl)cyclohexane-1-carboxamide] |
| 66.4 ± 2.06 | 77.9 | CC(C)(Cn1cc(C(F)(F)F)cn1)NC(=O)[C@@H](Cc1cnc2ncccn12)NC(=O)[C@H]1C[C@@H]1c1ccc(NC(=O)C2CC(F)(F)C2)cc1 [Example 46, 3,3-Difluoro-N-(4-((1S,2S)-2-(((R)-3-(imidazo[1,2-a]pyrimidin-3-yl)-1-((2-methyl-1-(4-(trifluoromethyl)-1H-pyrazol-1-yl)propan-2-yl)amino)-1-oxopropan-2-yl)carbamoyl)cyclopropyl)phenyl) cyclobutane-1-carboxamide] |
| 84.6 ± 1.49 | 41.5 | CC(C)(Cn1cc(C(F)(F)F)cn1)NC(=O)[C@@H](Cc1cnc2ncccn12)NC(=O)[C@H]1C[C@@H]1c1ccc(-c2cnc3nccn3c2)cc1 [Example 47, (1S,2S)-N-((R)-3-(Imidazo[1,2-a]pyrimidin-3-yl)-1-((2-methyl-1-(4-(trifluoromethyl)-1H-pyrazol-1-yl)propan-2-yl)amino)-1-oxopropan-2-yl)-2-(4-(imidazo[1,2-a]pyrimidin-6-yl)phenyl) cyclopropane-1-carboxamide] |
| 56.5 ± 4.38 | 76.9 | CC(C)(Cc1ccc(F)cc1)NC(=O)[C@@H](Cc1cnc2ncccn12)NC(=O)[C@H]1C[C@@H]1c1ccc(NC(=O)C2CC(F)(F)C2)cc1 [Example 48, 3,3-Difluoro-N-(4-((1S,2S)-2-(((R)-1-((1-(4-fluorophenyl)-2-methylpropan-2-yl)amino)-3-(imidazo[1,2-a]pyrimidin-3-yl)-1-oxopropan-2-yl)carbamoyl)cyclopropyl)phenyl)cyclobutane-1-carboxamide] |
